Tests used:
[1] = Effect of pH on extraction of PAA from enzymatic liquor with Phytosol D; type: physicochemical; settings: 20 ml enzymatic liquor extracted with 40 ml Phytosol D
Procedure: This example was carried out to assess the efficiency and selectivity of Phytosol D in extracting PAA from the enzymatic liquor at different pH's.
The enzymatic liquor was prepared as described in Example 1 using the enzyme resin from Example C2.
20 ml samples of the liquor were extracted with 40 ml of Phytosol D, at various pH's, using hand held apparatus as follows:
The apparatus consists of a 100 ml graduated glass tube fitted with a filter assembly and a clamping ring which in turn is fitted with a needle valve. The material or solution to be extracted is charged into the tube. The filter is then assembled with the aid of a sealing O ring followed by the clamping ring ensuring that a tight fit is achieved. Phytosol liquid gas is introduced to the glass tube from an aerosol can via the needle valve. The contents of the tube are mixed by vigorous shaking after which the tube is inverted and allowed to stand until the two layers are separated. The Phytosol is then released via the needle valve into an evaporator bottle taking care not to allow any of the aqueous layer to co-discharge.

[2] = Solubility of 6-APA in Phytosol solvent; type: physicochemical
[3] = background statement; cited from earlier work

CC1(C)S[C@@H]2[C@H](N)C(=O)N2[C@H]1C(=O)O [6-APA, 6-Aminopenicillanic acid]
Removed (% of total w/w) ([1]; pH 1.4): <1 % of total w/w
Removed (% of total w/w) ([1]; pH 3.8): <1 % of total w/w
Removed (% of total w/w) ([1]; pH 5.3): 0 % of total w/w
Removed (% of total w/w) ([1]; pH 6.5): 0 % of total w/w
Removed (% of total w/w) ([1]; pH 8.0): 0 % of total w/w
solubility in the solvent [2]: negligible
solubility in water [3]: around 2%

O=C(O)Cc1ccccc1 [PAA, Phenylacetic acid]
Removed (% of total w/w) ([1]; pH 1.4): >99 % of total w/w
Removed (% of total w/w) ([1]; pH 3.8): >99 % of total w/w
Removed (% of total w/w) ([1]; pH 5.3): 6.5 % of total w/w
Removed (% of total w/w) ([1]; pH 6.5): <2 % of total w/w
Removed (% of total w/w) ([1]; pH 8.0): 0 % of total w/w

— US6383772B1, “Enzymatic conversion in a solvent mixture containing water and flourinated, non-chlorinated solvent” (Advanced Phytonic Limited, priority 1997, dated 2002)
